From article PMC4601023, “Novel anticancer agent, SQAP, binds to focal adhesion kinase and modulates its activity” (Scientific Reports, 2015)

How the values were obtained:
Assay type in all cases: cell-based, human
A549 cells [1] = assay: WST-8 cell viability assay, A549; conditions: A549, 46 h, SQAP 10 and 20 µM
Experimental: HUVEC and A549 cells were seeded into a 96-well culture plate (2 × 10^4 cells/well). The following day, cells were treated with SQAP or vehicle in a medium containing 1% FBS and VEGF (50 ng/mL) for 17 h (HUVEC) or fibronectin (10 μg/mL) for 46 h (A549). Cell viability was measured using Cell Count Reagent SF (Nacalai Tesque, Kyoto, Japan) following the manufacturer’s instructions. Briefly, 1/10 volume of the WST-8 solution was added to each well, and the plates were incubated at 37 °C for 1 h. Then, cell viability was determined colorimetrically by measuring OD450 using a microplate reader on a Wallac ARVO 5X microplate reader (Perkin Elmer, Waltham, MA, USA).
control SQAP 10 µM SQAP 20 µM
Livecellswere measured with SF reagent under similarconditionsas describedin thewound healing
assayinFig.5. (A)HUVEC and (B)A549 cells.
(also on this page, place not known: Cell viability (%) Cell viability (%) Live cells were similar conditions as described in the wound assay in Fig. 5. (A) HUVEC (B) A549)

A549 cells [2] = assay: In vitro cell migration assay (Oris kit), A549; conditions: A549, 96 well cell migration kit
Experimental: Figure 6 SQAP inhibits cell migration in vitro. (A) HUVEC cells were seeded and grown to 100% confluence in 60-mm diameter dishes. After generating a single scratch in the monolayer, the cells were cultured for 11 h in medium containing 1% FBS and VEGF (50 ng/mL) in the presence or absence of SQAP. Photographs were taken immediately after 11 h. (B) The change in wound width was measured as described in the Materials and Methods. (C) A549 cells were seeded and grown to 100% confluence in 60-mm diameter dishes. After generating a single scratch in the monolayer, the cells cultured for the 25 h in media containing 1% FBS and fibronectin (10 μg/ml) treated with SQAP or vehicle. Photographs were collected immediately after wounding and after 25 h. (D) The change in wound width was measured as described in the Materials and Methods. Cell migration was additionally examined in 96 well plates. HUVEC (E) and A549 cells (F) were seeded and grown into confluence overnight. […] The fluorescent emission signal was obtained with a plate reader. […]
Wound healing was additionally assessed in HUVEC or A549 cells using a cell migration kit (Oris, Madison, WI, USA) as described by the manufacturer. […] The fluorescence emission signal in the migration zones was measured on a Wallac Arvo 5x microplate reader (Perkin Elmer, Waltham, MA, USA).

A549 cells [3] = assay: Wound healing assay, A549; conditions: A549, 25 h, 1% FBS and fibronectin 10 μg/mL; control 46%
Experimental: Figure 6 SQAP inhibits cell migration in vitro. (A) HUVEC cells were seeded and grown to 100% confluence in 60-mm diameter dishes. After generating a single scratch in the monolayer, the cells were cultured for 11 h in medium containing 1% FBS and VEGF (50 ng/mL) in the presence or absence of SQAP. Photographs were taken immediately after 11 h. (B) The change in wound width was measured as described in the Materials and Methods. (C) A549 cells were seeded and grown to 100% confluence in 60-mm diameter dishes. After generating a single scratch in the monolayer, the cells cultured for the 25 h in media containing 1% FBS and fibronectin (10 μg/ml) treated with SQAP or vehicle. Photographs were collected immediately after wounding and after 25 h. (D) The change in wound width was measured as described in the Materials and Methods. Cell migration was additionally examined in 96 well plates. HUVEC (E) and A549 cells (F) were seeded and grown into confluence overnight. After removing the stoppers, the live cells were stained with CellTracker^TM Green and incubated for the indicated time. The fluorescent emission signal was obtained with a plate reader. […]
Wound healing assay was analyzed by microscope imaging. […] Wound diameters in the images were measured and percentage of wound size was calculated as follows: [wound diameter at 11 or 25 h/wound diameter at 0 h] x 100.

[4] = test system: Akt phosphorylation at S473 in HUVEC; assay: Akt phosphorylation in HUVEC, Western blotting; conditions: treated for 21 h, 10 µM
Description: Furthermore, we looked at FAK signaling pathway to validate our results. Paxillin binds to FAK 919–938 residues which is a sequence contained within the region where SQAP is predicted to bind. Binding between paxillin and FAK results in paxillin phosphorylation at Y118[35][36]. Thus, we examined paxillin phosphorylation. […] Additionally, we studied Akt phosphorylation at S473 on account of FAK is a known factor in control of Akt activity. We observed that Akt phosphorylation was diminished when treated with SQAP or SQMG for 21 h (see Supplementary Fig. S3).
Cells were harvested and solubilized in RIPA buffer (20 mM Tris-HCl, pH 7.5, 1% Sodium deoxycholate, 150 mM NaCl, 5 mM EDTA, 1% Triton X-100, 0.1% SDS, 0.1%, 1 mM PMSF, 1 mM vanadate and 1 μg/mL leupeptin). Protein quantification was determined using the DC protein assay kit (Bio-Rad, Hercules, CA, USA). A total of 15 μg of each protein sample were separated by SDS–PAGE gels and blotted onto polyvinylidene difluoride membranes (Merck, Kenilworth, NJ, US). After blocking for 1 h with Blocking-One (Nacalai Tesque, Kyoto, Japan), proteins were detected by incubating the membranes with the primary antibody at 4 °C overnight (anti-Y397 2:2000, anti-Y925 5:2000 and anti-FAK 0.5:2000) followed by incubation with horseradish peroxidase-conjugated secondary antibodies at room temperature for 1 h (anti-mouse 0.5:2000 and anti-rabbit 0.4:2000). […]

In the case of CCCCCCCCCCCCCCCCCC(=O)OCCCO[C@H]1O[C@H](CS(=O)(=O)O)[C@@H](O)[C@H](O)[C@H]1O [SQAP, sulfoquynovosylacylpropanediol], the “cytotoxicity (WST-8 cell viability)” value (A549 cells [1]) is reported as “noncytotoxic”, the cell migration (A549 cells [2]) is reported as “arrested” and the wound size (A549 cells [3]) is reported as 68%. For the same compound, the “Akt phosphorylation at S473” value [4] was “diminished”.
